# The source made the active and inactive calls. The calls are words filed in the database; no cut-off is given here.
# Columns and labels:
# [1] = tested on: Human immunodeficiency virus 1; assay: Antiviral activity against HIV1 LAI in MT2 cells; assay type: functional, organism-based; details: Human immunodeficiency virus 1, LAI
# Protease = Protease (Human immunodeficiency virus 1, UniProt Q9YQ12); assay: Inhibition of HIV1 protease
# [2] = target: Protease (Human immunodeficiency virus 1) (UniProt Q9YQ12); assay: Inhibition of HIV1 protease dimerization in COS7 cells at 1 uM
# Chain of Protease (Human immunodeficiency virus 1) (Q9YQ12 as listed by the source): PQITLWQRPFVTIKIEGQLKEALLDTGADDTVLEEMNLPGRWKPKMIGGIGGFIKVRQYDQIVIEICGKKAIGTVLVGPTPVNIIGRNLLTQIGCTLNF
# Chain of Protease (Q9YQ12 whole entry): as the sequence (Q9YQ12 as listed by the source) above
SMILES,IC50 [1],Ki (Protease),Activity [2]
CCC[C@@]1(CCc2ccccc2)CC(O)=C([C@H](CC)c2cccc(NS(=O)(=O)c3ccc(C(F)(F)F)cn3)c2)C(=O)O1,100000 pM,,
CC(C)CN(C[C@@H](O)[C@H](Cc1ccccc1)NC(=O)O[C@H]1CO[C@H]2OCC[C@H]21)S(=O)(=O)c1ccc2c(c1)OCO2,400 pM,14 pM,Active
CC(C)CN(C[C@@H](O)[C@H](Cc1ccccc1)NC(=O)O[C@@H]1C[C@@H]2CCO[C@@H]2C1)S(=O)(=O)c1ccc(CO)cc1,1400 pM,3.5 pM,Active
Cc1nc(COc2ccc(C[C@H](NC(=O)O[C@H]3CO[C@H]4OCC[C@H]43)[C@H](O)CN(CC(C)C)S(=O)(=O)c3ccc4c(c3)OCO4)cc2)cs1 [BRECANAVIR],200 pM,6.8 pM,Active
COc1ccc(S(=O)(=O)N(CC(C)C)C[C@@H](O)[C@H](Cc2ccccc2)NC(=O)C[C@H]2CO[C@H]3OCC[C@@H]23)cc1,480000 pM,,Active
COc1ccc(S(=O)(=O)N(CC(C)C)C[C@@H](O)[C@H](Cc2ccccc2)NC(=O)O[C@H]2CO[C@H]3OCC[C@H]32)cc1,300 pM,,Active
CC(C)CN(C[C@@H](O)[C@H](CSc1ccccc1)NC(=O)O[C@@H]1C[C@@H]2CCO[C@@H]2C1)S(=O)(=O)c1ccc(CO)cc1,5000 pM,29 pM,Active
CC(C)CN(C[C@@H](O)[C@H](Cc1ccccc1)NC(=O)O[C@H]1CO[C@H]2OCC[C@H]21)S(=O)(=O)c1ccc(N)cc1,3400 pM,,Active

# Source: ChEMBL document CHEMBL1147040, “Potent inhibition of HIV-1 replication by novel non-peptidyl small molecule inhibitors of protease dimerization” (J Biol Chem, 2007)
